Measurements: ChEMBL document CHEMBL1201862, “PubChem BioAssay data set” (2004)
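Exposure lasted 48 hours, with cells grown in 96-well plates and compounds tested at five concentrations. The concentration for 50% growth inhibition is given as GI50.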 The source made the active and inactive calls. Cut-off read from the data, not from the text of the source: active = GI50 up to about 1.1 µM and inactive = higher. Residues, ends and D or L forms follow the SMILES beside them. *: point of attachment. Boc = CC(C)(C)OC(=O)*; OBn = c1ccc(CO*)cc1

Key:
Test in all cases: DTP human tumour cell line panel, 48 h
PC-3 = tested on: PC-3
SK-MEL-2 = tested on: SK-MEL-2
HCC 2998 = tested on: HCC 2998
NCI/ADR-RES = tested on: NCI/ADR-RES
SF-295 = tested on: SF-295
OVCAR-8 = tested on: OVCAR-8
A498 = tested on: A498
SW-620 = tested on: SW-620
OVCAR-4 = tested on: OVCAR-4
RXF 393 = tested on: RXF 393
HOP-62 = tested on: HOP-62
SK-OV-3 = tested on: SK-OV-3
UO-31 = tested on: UO-31
HT-29 = tested on: HT-29
UACC-62 = tested on: UACC-62
UACC-257 = tested on: UACC-257
EKVX = tested on: EKVX
KM12 = tested on: KM12
MDA-MB-435 = tested on: MDA-MB-435
Malme-3M = tested on: Malme-3M

Measured: GI50

COc1ccc(Nc2nnc(-c3nsc4ccccc34)s2)cc1
inactive: PC-3 > 100 µM | SK-MEL-2 78.7 µM | HCC 2998 > 56.4 µM | NCI/ADR-RES 9.71 µM | SF-295 10.8 µM | OVCAR-8 49.8 µM | A498 3.78 µM | SW-620 > 72.9 µM | OVCAR-4 2.47 µM | RXF 393 26.2 µM | HOP-62 8.26 µM | SK-OV-3 2.52 µM | UO-31 10.2 µM | HT-29 39 µM | UACC-62 > 100 µM | UACC-257 > 100 µM | EKVX 58.6 µM | KM12 > 100 µM | MDA-MB-435 > 100 µM

COc1nc2ncc([C@@H](O)[C@H](O)CO)nc2c(=O)n1C
inactive: PC-3 > 100 µM | SK-MEL-2 > 100 µM | NCI/ADR-RES > 100 µM | SF-295 > 100 µM | OVCAR-8 > 100 µM | A498 > 100 µM | SW-620 > 100 µM | OVCAR-4 > 100 µM | RXF 393 > 100 µM | HOP-62 > 100 µM | SK-OV-3 > 100 µM | UO-31 > 100 µM | HT-29 > 100 µM | Malme-3M > 100 µM | UACC-62 > 100 µM | UACC-257 > 100 µM | EKVX > 100 µM | KM12 > 100 µM | MDA-MB-435 > 100 µM

COc1c(-c2ccc(F)cc2)oc2cc(O)cc(O)c2c1=O
inactive: PC-3 34 µM | SK-MEL-2 23.3 µM | HCC 2998 14.5 µM | NCI/ADR-RES 25.9 µM | SF-295 26.1 µM | OVCAR-8 28.7 µM | A498 47.6 µM | SW-620 43 µM | HOP-62 18.5 µM | SK-OV-3 30.5 µM | UO-31 16.6 µM | HT-29 22.7 µM | Malme-3M 26.6 µM | EKVX 14.6 µM | KM12 30.5 µM | MDA-MB-435 32.1 µM

O=C(OCCN=c1c2ccccc2ccc2ccccc12)c1ccc([N+](=O)[O-])cc1
inactive: PC-3 > 100 µM | SK-MEL-2 > 100 µM | HCC 2998 > 100 µM | NCI/ADR-RES > 100 µM | SF-295 > 100 µM | OVCAR-8 > 100 µM | SW-620 > 100 µM | OVCAR-4 > 100 µM | RXF 393 > 100 µM | HOP-62 > 100 µM | SK-OV-3 > 100 µM | UO-31 > 100 µM | HT-29 > 100 µM | Malme-3M > 100 µM | UACC-62 > 100 µM | UACC-257 > 100 µM | EKVX > 100 µM | KM12 > 100 µM | MDA-MB-435 > 100 µM

Cc1ccc2nc(N/N=C/c3sccc3C)cc(C)c2c1
inactive: PC-3 35 µM | SK-MEL-2 > 100 µM | HCC 2998 > 100 µM | NCI/ADR-RES > 100 µM | OVCAR-8 > 100 µM | A498 > 100 µM | SW-620 > 100 µM | OVCAR-4 34.9 µM | RXF 393 61.8 µM | HOP-62 29.3 µM | SK-OV-3 21.1 µM | UO-31 > 100 µM | HT-29 5.48 µM | UACC-62 > 100 µM | UACC-257 > 100 µM | EKVX > 100 µM | KM12 > 100 µM | MDA-MB-435 > 100 µM

CC(C)N(C(=O)C12C3(C(=O)C(C)(C)C)C4C5(C#N)C3C1(C(=O)C(C)(C)C)C5C42C(=O)C(C)(C)C)C(C)C (stereo unspecified)
inactive: PC-3 > 100 µM | SK-MEL-2 > 100 µM | HCC 2998 > 100 µM | NCI/ADR-RES > 100 µM | SF-295 > 100 µM | OVCAR-8 > 100 µM | A498 > 100 µM | SW-620 > 100 µM | OVCAR-4 > 100 µM | RXF 393 > 100 µM | HOP-62 > 100 µM | UO-31 > 100 µM | HT-29 > 100 µM | UACC-62 > 100 µM | UACC-257 > 100 µM | EKVX > 100 µM | KM12 > 100 µM | MDA-MB-435 > 100 µM

O=C(Oc1cncc(Cl)c1)c1cc2ccccc2sc1=O
inactive: PC-3 33 µM | SK-MEL-2 24.7 µM | HCC 2998 32.7 µM | NCI/ADR-RES 78.3 µM | SF-295 96.2 µM | OVCAR-8 > 100 µM | SW-620 35.2 µM | OVCAR-4 73.6 µM | RXF 393 23 µM | HOP-62 54.3 µM | SK-OV-3 > 100 µM | UO-31 > 100 µM | HT-29 86.1 µM | Malme-3M 34.2 µM | UACC-62 29 µM | UACC-257 > 100 µM | EKVX > 100 µM | KM12 40.9 µM | MDA-MB-435 29.5 µM

CC(NC(=O)CNC(=O)OC(C)(C)C)C(=O)NC(Cc1ccccc1)C(=O)OCc1ccccc1 (stereo not drawn) (Boc-Gly-Ala-Phe-OBn; configuration not given here)
inactive: PC-3 > 100 µM | SK-MEL-2 > 100 µM | NCI/ADR-RES > 100 µM | SF-295 > 100 µM | OVCAR-8 > 100 µM | A498 > 100 µM | SW-620 > 100 µM | OVCAR-4 > 100 µM | RXF 393 > 100 µM | SK-OV-3 > 100 µM | UO-31 > 100 µM | HT-29 95.9 µM | Malme-3M 63.4 µM | UACC-62 > 100 µM | UACC-257 > 100 µM | EKVX > 100 µM | KM12 > 100 µM | MDA-MB-435 > 100 µM
